Laboratory results as given in patent publication US8357365B2, “Granulysin peptides and methods of use thereof” (The Regents of the University of California, priority 2005, dated 2013).
Entries after “also recorded” stand apart in the source; their conditions may differ.

Tests used:
[1] = system: Mycobacterium tuberculosis; conditions: earlier study, Ernst et al., 2000; cited from earlier work
[2] = system: Propionibacterium acnes strain ATCC 6919; experiment: CFU assay of antimicrobial activity against P. acnes; format: cell-based; conditions: for reduction of the number of viable P. acnes: 100 μM of peptide (FIG. 1B)
Experimental: CFU assay. The CFU assay was performed as described previously (Ernst et al., (2000) Immunol 165:7102-7108). Propionibacterium acnes strain ATCC 6919 (American Type Cell Culture, Manassas, Va.) was grown under anaerobic conditions in Reinforced Clostridial Medium (Oxoid, Basingstroke, England) for two days and collected in mid-log phase. The bacteria were washed three times with the assay buffer, 10 mM sodium phosphate, pH 7.2, supplemented with 0.03% trypticase soy broth (TSB, Becton-Dickinson, Cockeysville, Md.), and enumerated by applying a conversion factor of 7.5×10^7 bacteria/mL=1 OD unit at 600 nm. Various concentrations of granulysin or granulysin peptides were incubated with 3.75×10^5 bacteria in a final volume of 30 μL at 37° C. for four hours. […] Plates were incubated for four days at 37° C. under anaerobic conditions, then individual colonies were counted and the number of CFU per tube was calculated.

Escherichia coli = conditions: earlier study, Ernst et al., 2000; cited from earlier work
[3] = system: inflammatory cytokines and chemokines; experiment: P. acnes-stimulated production of cytokines and chemokines by monocytes; format: cell-based; conditions: primary human monocytes (FIG. 5)
Experimental: (§1) Primary Human Monocyte Isolation and Stimulation. Peripheral human blood was drawn from normal healthy volunteers into heparinized tubes according to a protocol approved by the Institutional Review Board at UCLA. PBMCs were then isolated on Ficoll-Paque gradients (Pharmacia, Piscataway, N.J.) and plated (5×10^5/well) in 96-well plates for 2 hours in 1% FCS (Omega Scientific, Tarzana, Calif.). Non-adherent cells were removed by washing 3 times with RPMI media, leaving adherent cells. Adherent monocytes were cultured in 10% FCS with P. acnes sonicate, granulysin peptides, or P. acnes sonicate together with various concentrations of granulysin peptide for 24 hours at 37° C. Monocyte supernatants were harvested and assayed for IL-12p40 using cytokine-specific, commercially available antibody pairs in a standard sandwich ELISA (Biosource International, Camarillo, Calif., or BD PharMingen, San Diego, Calif.). Capture antibodies were coated to 96-well EIA/RIA plates (Costar, Corning) and detection was achieved by incubating with biotinylated antibodies followed by Immunopure HRP-conjugated streptavidin (Pierce, Rockford, Ill.) and the ABTS Microwell Peroxidase Substrate System (Kirkegaard & Perry Laboratories, Gaithersburg, Md.). The absorbance at 405 nm was read using a microtiter plate reader, and cytokine concentrations were calculated from a standard curve of recombinant cytokine (Biosource or Pharmingen). Supernatants were assayed for other cytokines using Pierce SearchLight Multiplex Cytokine array services (Pierce Biotechnology, Woburn, Mass.).

MDC = experiment: Cytokine array, P. acnes-stimulated monocytes, MDC; format: cell-based, human
Experimental: as §1, with “Capture antibodies were coated to 96-well EIA/RIA plates (Costar, Corning) and detection was achieved by incubating with biotinylated antibodies followed by Immunopure HRP-conjugated streptavidin (Pierce, Rockford, Ill.) and the ABTS Microwell Peroxidase Substrate System (Kirkegaard & Perry Laboratories, Gaithersburg, Md.).” left out, “Supernatants were assayed for other cytokines using Pierce SearchLight Multiplex Cytokine array services (Pierce Biotechnology, Woburn, Mass.).” left out

IL-12p40 = IL-12p40 ELISA, P. acnes-stimulated primary human monocytes; format: cell-based; conditions: compared to peptides 1-20 and 16-35 (FIG. 5A)
Experimental: as §1, with “Capture antibodies were coated to 96-well EIA/RIA plates (Costar, Corning) and detection was achieved by incubating with biotinylated antibodies followed by Immunopure HRP-conjugated streptavidin (Pierce, Rockford, Ill.) and the ABTS Microwell Peroxidase Substrate System (Kirkegaard & Perry Laboratories, Gaithersburg, Md.).” left out, “Supernatants were assayed for other cytokines using Pierce SearchLight Multiplex Cytokine array services (Pierce Biotechnology, Woburn, Mass.).” left out

IP-10 = experiment: Cytokine array, P. acnes-stimulated monocytes, IP-10; format: cell-based, human
Experimental: as §1, with “Capture antibodies were coated to 96-well EIA/RIA plates (Costar, Corning) and detection was achieved by incubating with biotinylated antibodies followed by Immunopure HRP-conjugated streptavidin (Pierce, Rockford, Ill.) and the ABTS Microwell Peroxidase Substrate System (Kirkegaard & Perry Laboratories, Gaithersburg, Md.).” left out, “Supernatants were assayed for other cytokines using Pierce SearchLight Multiplex Cytokine array services (Pierce Biotechnology, Woburn, Mass.).” left out

MCP-1 = experiment: Cytokine array, P. acnes-stimulated monocytes, MCP-1; format: cell-based, human
Experimental: as §1, with “Capture antibodies were coated to 96-well EIA/RIA plates (Costar, Corning) and detection was achieved by incubating with biotinylated antibodies followed by Immunopure HRP-conjugated streptavidin (Pierce, Rockford, Ill.) and the ABTS Microwell Peroxidase Substrate System (Kirkegaard & Perry Laboratories, Gaithersburg, Md.).” left out, “Supernatants were assayed for other cytokines using Pierce SearchLight Multiplex Cytokine array services (Pierce Biotechnology, Woburn, Mass.).” left out

P. acnes = experiment: Scanning and transmission electron microscopy of peptide-treated P. acnes; format: cell-based, Propionibacterium acnes; conditions: 1 hour to 72 hours of peptide treatment (FIG. 2B, 2C)
Experimental: Electron microscopy. P. acnes at a concentration of 2.08×10^7 bacteria/mL was suspended in 10 mM sodium phosphate buffer pH 7.2 supplemented with 0.03% TSB and incubated with […] granulysin peptides. Samples were then fixed for 30 minutes with 2% gluteraldehyde in 1×PBS, pH=7.35, room temperature, then washed three times and suspended in 1 mL 1×PBS. Scanning EM samples were filtered onto a micropore filter. The filters with the sample on top were dehydrated in graded ethanol; 50, 75, 95 and 100%-15 minutes in each, followed by similar transfers in hexa-methyl-disilazane reagent; 50, 75, 95%-30 minutes each followed by 100% hexa-methyl-disilazane reagent overnight. The scanning EM samples were gold coated and then viewed and photographed on a Cambridge Scanning electron microscope. Transmission EM samples were dehydrated in graded ethanol as above, embedded in Epon, and sectioned on Sorvall MT6000 (RMC, Tucson Ariz.). Thin sections ([…]) were stained with uranyl acetate, viewed and photographed on Jeol XC100 at 80-kV

Row | Sequence | killing of Mycobacterium tuberculosis [1] | reduction of the number of viable P. acnes [2] | killing of Escherichia coli (Escherichia coli) | P. acnes-stimulated production of cytokines and chemokines [3] | further results
1 | GRDYRTSLTIVQKLKKMVDKPTQRSVSNAATRVSR [1-35] | capable of killing | 2 logs | capable of killing | – | –
2 | TGRSRWRDVSRNFMRRYQSRVIQGLVAGETAQQIS [36-70] | capable of killing | – | capable of killing | – | –
3 | TRVSRTGRSRWRDVSRNFMR [31-50] | capable of killing | 4 logs | capable of killing | inhibit | –
4 | TRVSRTGRSRWRDWSRNFMR [31-50v44w] | – | – | – | inhibit | production of MDC (MDC): inhibited; P. acnes-stimulated production of IL-12p40 (IL-12p40): decreased; production of IP-10 (IP-10): inhibited; production of MCP-1 (MCP-1): inhibited; fewer bacteria as compared to incubation with peptide 31-50 ([2]; 32 μM of peptide (FIG. 2A)): 2-3 logs; effect on P. acnes surface by scanning and transmission EM (P. acnes): perturbs the surface integrity of P. acnes
5 | TRVSRTGRSRWRDWSRNFMR [D-31-50v44w] (all D-amino acids) | – | – | – | decreased; also recorded: inhibit | antimicrobial potency in vitro as compared to 31-50v44w (D versus L form) ([2]; P. acnes): even greater potency; kind of antimicrobial activity against P. acnes (bacteriostatic or bactericidal) ([2]; comparison with widely used antibiotics (FIG. 3C)): bactericidal
